Like-named read-outs stand apart in the source and are kept apart here.

This passage reports IC50 results from EP3154958B1, “PHOSPHATIDYLINOSITOL 3-KINASE INHIBITORS” (Gilead Sciences, Inc., priority 2014, dated 2015).

Common to all, as to format: biochemical
The target of one assay is T1, PI3Kδ (Homo sapiens, UniProt O00329).
T1 construct: made in house
Kind of assay: TR-FRET enzymatic activity assay, PI3Kδ. As to the method: (§1) The compounds of formula (I) were characterized for their enzymatic activity against the PI3K isoforms. The activities were measured using a time-resolved fluorescence resonance energy transfer (TR-FRET) assay.
A general note: TR-FRET usually uses a lanthanide donor and a delayed reading to cut background.

A further assay has as its target T2, PI3Kβ (Homo sapiens, UniProt P42338).
T2 construct: made in house
Briefly: TR-FRET enzymatic activity assay, PI3Kβ. The procedure:
as §1

Another assay has as its target T3, PI3Kγ (Homo sapiens, UniProt P48736).
T3 construct: made in house
Kind of assay: TR-FRET enzymatic activity assay, PI3Kγ. The procedure: as §1

Setting [1] is: recombinant heterodimeric PI3Kδ 25-50 pM, 2× Km ATP, 30 minutes at 25°C.
Where [2] appears, read: recombinant heterodimeric PI3Kβ 25-50 pM, 2× Km ATP, 30 minutes at 25°C.
Setting [3] is: recombinant heterodimeric PI3Kγ 2 nM, 2× Km ATP, 30 minutes at 25°C.

T2 sequence (P42338 whole entry): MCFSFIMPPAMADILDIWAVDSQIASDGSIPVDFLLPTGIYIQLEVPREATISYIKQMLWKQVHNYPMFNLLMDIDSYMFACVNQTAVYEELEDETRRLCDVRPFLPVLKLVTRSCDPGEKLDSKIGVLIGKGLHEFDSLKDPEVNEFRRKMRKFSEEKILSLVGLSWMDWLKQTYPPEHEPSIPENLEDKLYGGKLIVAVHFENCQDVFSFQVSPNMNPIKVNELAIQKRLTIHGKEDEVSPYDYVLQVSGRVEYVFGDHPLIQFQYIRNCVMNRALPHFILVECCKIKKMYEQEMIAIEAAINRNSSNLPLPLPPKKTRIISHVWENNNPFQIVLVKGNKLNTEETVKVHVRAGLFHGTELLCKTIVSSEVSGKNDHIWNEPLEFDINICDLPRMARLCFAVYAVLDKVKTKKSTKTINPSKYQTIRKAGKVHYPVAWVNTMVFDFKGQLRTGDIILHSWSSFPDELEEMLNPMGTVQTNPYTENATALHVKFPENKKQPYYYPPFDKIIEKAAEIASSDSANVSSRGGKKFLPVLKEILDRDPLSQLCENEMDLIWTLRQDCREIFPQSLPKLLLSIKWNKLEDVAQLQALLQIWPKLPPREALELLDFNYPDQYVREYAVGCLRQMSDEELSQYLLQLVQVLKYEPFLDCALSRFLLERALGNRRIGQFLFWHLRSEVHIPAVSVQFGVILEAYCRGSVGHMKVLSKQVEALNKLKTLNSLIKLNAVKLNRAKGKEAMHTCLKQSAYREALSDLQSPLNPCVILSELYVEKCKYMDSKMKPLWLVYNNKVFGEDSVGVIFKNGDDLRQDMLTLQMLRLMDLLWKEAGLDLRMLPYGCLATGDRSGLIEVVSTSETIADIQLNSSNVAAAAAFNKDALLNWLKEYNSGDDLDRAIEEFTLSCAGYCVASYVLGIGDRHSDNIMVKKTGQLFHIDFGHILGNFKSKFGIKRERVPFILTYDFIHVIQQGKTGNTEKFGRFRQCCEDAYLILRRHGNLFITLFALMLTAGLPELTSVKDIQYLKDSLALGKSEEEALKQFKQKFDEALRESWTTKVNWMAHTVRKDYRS
T2 sequence (P27986 whole entry partner): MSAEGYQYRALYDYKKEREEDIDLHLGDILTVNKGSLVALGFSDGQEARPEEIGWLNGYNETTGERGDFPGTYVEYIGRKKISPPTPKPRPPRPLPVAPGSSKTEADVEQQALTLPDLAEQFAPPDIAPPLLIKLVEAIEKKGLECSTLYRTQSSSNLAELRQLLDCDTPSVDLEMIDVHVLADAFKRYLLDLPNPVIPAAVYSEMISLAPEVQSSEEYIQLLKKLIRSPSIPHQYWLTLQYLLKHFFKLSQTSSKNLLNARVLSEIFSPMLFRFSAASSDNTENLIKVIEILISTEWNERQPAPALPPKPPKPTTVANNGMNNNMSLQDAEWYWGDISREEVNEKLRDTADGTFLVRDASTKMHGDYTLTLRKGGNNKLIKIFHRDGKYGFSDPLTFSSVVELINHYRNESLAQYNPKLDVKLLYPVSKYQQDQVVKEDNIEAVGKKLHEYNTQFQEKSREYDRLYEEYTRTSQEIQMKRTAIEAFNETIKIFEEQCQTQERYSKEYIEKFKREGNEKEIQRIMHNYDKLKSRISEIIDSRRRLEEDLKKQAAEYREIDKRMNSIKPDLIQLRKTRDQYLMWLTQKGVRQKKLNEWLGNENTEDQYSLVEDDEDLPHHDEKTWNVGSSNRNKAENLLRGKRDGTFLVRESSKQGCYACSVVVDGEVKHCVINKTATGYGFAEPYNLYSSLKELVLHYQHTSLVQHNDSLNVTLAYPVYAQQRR
T1 sequence (O00329 whole entry): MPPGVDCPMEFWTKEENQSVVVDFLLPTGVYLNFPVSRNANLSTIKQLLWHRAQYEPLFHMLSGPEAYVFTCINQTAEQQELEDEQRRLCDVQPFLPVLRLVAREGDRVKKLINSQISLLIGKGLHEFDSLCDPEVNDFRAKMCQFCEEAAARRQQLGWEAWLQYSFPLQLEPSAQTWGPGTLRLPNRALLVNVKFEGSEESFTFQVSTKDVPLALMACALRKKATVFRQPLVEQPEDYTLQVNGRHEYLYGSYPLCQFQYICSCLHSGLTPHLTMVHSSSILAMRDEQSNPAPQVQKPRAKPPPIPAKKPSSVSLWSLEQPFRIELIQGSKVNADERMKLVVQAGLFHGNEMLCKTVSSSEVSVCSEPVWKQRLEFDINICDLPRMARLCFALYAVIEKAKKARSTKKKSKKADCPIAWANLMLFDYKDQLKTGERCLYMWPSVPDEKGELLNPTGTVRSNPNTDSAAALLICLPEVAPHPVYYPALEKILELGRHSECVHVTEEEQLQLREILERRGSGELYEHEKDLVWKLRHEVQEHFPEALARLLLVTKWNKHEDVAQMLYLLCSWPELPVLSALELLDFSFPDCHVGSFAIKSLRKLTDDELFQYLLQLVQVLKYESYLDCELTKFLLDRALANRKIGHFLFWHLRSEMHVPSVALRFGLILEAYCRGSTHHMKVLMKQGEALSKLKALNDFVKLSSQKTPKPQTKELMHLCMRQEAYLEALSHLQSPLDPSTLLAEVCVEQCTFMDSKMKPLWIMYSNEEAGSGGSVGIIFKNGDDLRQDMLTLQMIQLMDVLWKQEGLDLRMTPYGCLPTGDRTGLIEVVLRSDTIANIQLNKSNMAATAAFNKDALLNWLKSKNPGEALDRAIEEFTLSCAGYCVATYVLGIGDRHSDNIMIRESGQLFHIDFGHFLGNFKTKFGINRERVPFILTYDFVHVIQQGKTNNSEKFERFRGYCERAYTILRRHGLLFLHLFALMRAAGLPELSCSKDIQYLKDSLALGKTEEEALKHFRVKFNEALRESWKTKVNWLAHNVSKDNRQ
T1 sequence (P27986 whole entry partner): as the sequence (P27986 whole entry partner) above
T3 sequence (P48736 whole entry): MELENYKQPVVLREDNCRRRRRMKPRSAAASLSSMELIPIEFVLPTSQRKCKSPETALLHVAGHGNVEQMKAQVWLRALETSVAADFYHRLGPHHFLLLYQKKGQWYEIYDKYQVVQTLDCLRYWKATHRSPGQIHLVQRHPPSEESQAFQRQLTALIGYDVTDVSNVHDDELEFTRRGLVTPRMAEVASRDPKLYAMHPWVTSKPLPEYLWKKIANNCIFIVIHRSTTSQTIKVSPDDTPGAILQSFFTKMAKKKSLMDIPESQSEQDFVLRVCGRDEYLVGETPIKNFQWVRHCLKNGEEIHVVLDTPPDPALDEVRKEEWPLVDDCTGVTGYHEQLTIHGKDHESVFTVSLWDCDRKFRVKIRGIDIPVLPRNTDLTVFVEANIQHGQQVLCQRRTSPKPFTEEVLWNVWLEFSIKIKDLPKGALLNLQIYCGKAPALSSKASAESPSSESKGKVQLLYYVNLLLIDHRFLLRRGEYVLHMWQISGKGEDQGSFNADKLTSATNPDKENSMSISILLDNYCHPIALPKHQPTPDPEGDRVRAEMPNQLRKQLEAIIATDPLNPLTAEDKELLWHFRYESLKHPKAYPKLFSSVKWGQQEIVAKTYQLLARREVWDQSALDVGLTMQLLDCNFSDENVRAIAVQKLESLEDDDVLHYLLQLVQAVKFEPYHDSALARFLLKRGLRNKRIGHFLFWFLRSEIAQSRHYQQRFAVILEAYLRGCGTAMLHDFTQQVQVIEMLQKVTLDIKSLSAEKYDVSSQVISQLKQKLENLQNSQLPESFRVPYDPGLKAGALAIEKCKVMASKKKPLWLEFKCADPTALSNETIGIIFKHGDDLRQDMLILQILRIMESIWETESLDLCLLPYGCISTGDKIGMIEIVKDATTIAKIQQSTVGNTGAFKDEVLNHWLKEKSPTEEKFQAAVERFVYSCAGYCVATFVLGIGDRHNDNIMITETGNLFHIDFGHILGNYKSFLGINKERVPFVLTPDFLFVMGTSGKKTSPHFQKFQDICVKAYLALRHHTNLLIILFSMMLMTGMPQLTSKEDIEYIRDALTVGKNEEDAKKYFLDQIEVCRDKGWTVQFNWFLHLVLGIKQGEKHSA
T3 sequence (Q8WYR1 whole entry partner): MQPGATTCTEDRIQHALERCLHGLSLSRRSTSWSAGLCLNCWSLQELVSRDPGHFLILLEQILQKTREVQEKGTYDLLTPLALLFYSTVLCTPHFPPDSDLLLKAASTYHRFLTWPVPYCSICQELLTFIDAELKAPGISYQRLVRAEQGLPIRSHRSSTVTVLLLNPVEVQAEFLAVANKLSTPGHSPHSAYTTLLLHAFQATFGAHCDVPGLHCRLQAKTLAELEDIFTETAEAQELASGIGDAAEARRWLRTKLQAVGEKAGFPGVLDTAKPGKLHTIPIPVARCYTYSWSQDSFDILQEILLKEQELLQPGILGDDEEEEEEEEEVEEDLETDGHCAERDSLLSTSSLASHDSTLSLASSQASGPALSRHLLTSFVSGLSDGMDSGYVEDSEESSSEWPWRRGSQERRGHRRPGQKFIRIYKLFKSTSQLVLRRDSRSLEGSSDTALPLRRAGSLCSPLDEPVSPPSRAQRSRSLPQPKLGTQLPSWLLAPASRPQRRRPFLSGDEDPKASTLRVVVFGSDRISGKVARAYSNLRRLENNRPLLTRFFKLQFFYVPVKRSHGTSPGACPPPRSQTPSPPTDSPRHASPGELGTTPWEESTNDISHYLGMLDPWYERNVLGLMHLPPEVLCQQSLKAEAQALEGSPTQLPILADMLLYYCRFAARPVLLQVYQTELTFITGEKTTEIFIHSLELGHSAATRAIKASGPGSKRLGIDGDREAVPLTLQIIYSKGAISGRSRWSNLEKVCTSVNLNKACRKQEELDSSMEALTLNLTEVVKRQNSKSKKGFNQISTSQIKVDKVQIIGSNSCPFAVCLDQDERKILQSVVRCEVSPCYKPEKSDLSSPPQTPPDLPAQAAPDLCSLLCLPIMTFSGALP

By IC50 is commonly meant the midpoint of a concentration-inhibition curve. Turning to `Cc1nc(N)nc(N[C@H](c2nc3cccc(Cl)c3c(=O)n2C2[C@H]3CNC[C@@H]23)C2CC2)c1C#N` (stereo in doubt) [Compound 14, 4-(((1S)-(3-((1R,5S)-3-azabicyclo[3.1.0]hexan-6-yl)-5-chloro-4-oxo-3,4-dihydroquinazolin-2-yl)(cyclopropyl)methyl)amino)-2-amino-6-methylpyrimidine-5-carbonitrile], the IC50 on PI3Kδ stood at 0.3 nM; at PI3Kβ it was 0.4 nM; against PI3Kγ, 480 nM.

Take `C[C@H](Nc1ncnc(N)c1C#N)c1nc2c(Cl)ccc(Cl)c2c(=O)n1N1CCNCC1` [Compound 76, (S)-4-amino-6-((1-(5,8-dichloro-4-oxo-3-(piperazin-1-yl)-3,4-dihydroquinazolin-2-yl)ethyl)amino)pyrimidine-5-carbonitrile]: the IC50 at PI3Kδ (setting [1]) was 2 nM; on PI3Kβ (setting [2]), 25 nM; at PI3Kγ (setting [3]), greater than 10000 nM.

Turning to `Cc1nc(N)nc(N[C@@H](C)c2nc3cccc(Cl)c3c(=O)n2C2CCNCC2)c1C#N` [Compound 24, (S)-2-amino-4-((1-(5-chloro-4-oxo-3-(piperidin-4-yl)-3,4-dihydroquinazolin-2-yl)ethyl)amino)-6-methylpyrimidine-5-carbonitrile], the IC50 on PI3Kδ (setting [1]) is 3 nM; at PI3Kβ (setting [2]), 2 nM; at PI3Kγ (setting [3]), greater than 10000 nM.

In the case of `C[C@H](Nc1nc(N)nc(N)c1C#N)c1nc2cccc(Cl)c2c(=O)n1C1CCN(CC(F)(F)F)C1` (stereo partly drawn) [Compound 119, 2,4-diamino-6-(((1S)-1-(5-chloro-4-oxo-3-(1-(2,2,2-trifluoroethyl)pyrrolidin-3-yl)-3,4-dihydroquinazolin-2-yl)ethyl)amino)pyrimidine-5-carbonitrile], the IC50 at PI3Kδ (setting [1]) was 14 nM; on PI3Kβ (setting [2]), 360 nM; on PI3Kγ (setting [3]), 2900 nM.

In the case of `C[C@H](Nc1nc(N)nc(N)c1C#N)c1nc2cccc(Cl)c2c(=O)n1[C@@H]1CCCNC1` (stereo in doubt) [Compound 27, 2,4-diamino-6-(((S)-1-(5-chloro-4-oxo-3-((R)-piperidin-3-yl)-3,4-dihydroquinazolin-2-yl)ethyl)amino)pyrimidine-5-carbonitrile], the IC50 was 830 nM at PI3Kδ (setting [1]), 5600 nM on PI3Kβ (setting [2]) and greater than 10000 nM on PI3Kγ (setting [3]).

`C[C@H](Nc1ncnc(N)c1C#N)c1nc2cccc(Cl)c2c(=O)n1N1CCCNCC1` [Compound 67, (S)-4-amino-6-((1-(5-chloro-3-(1,4-diazepan-1-yl)-4-oxo-3,4-dihydroquinazolin-2-yl)ethyl)amino)pyrimidine-5-carbonitrile]: the IC50 on PI3Kδ (setting [1]) was 2 nM; on PI3Kβ (setting [2]), 22 nM; at PI3Kγ (setting [3]) it was greater than 10000 nM.

Consider `C[C@H](Nc1nc(N)nc(N)c1Cl)c1nc2c(F)ccc(Cl)c2c(=O)n1N1CCNCC1` [Compound 20, (S)-5-chloro-2-(1-((2,6-diamino-5-chloropyrimidin-4-yl)amino)ethyl)-8-fluoro-3-(piperazin-1-yl)quinazolin-4(3H)-one], for which the IC50 on PI3Kδ (setting [1]) is 20 nM; at PI3Kβ (setting [2]) it was 40 nM; on PI3Kγ (setting [3]) it was greater than 10000 nM.

Regarding `C[C@H](Nc1nc(N)nc(N)c1C#N)c1nc2cccc(Cl)c2c(=O)n1[C@@H]1CCNC1` [Compound 31, 2,4-diamino-6-(((S)-1-(5-chloro-4-oxo-3-((R)-pyrrolidin-3-yl)-3,4-dihydroquinazolin-2-yl)ethyl)amino)pyrimidine-5-carbonitrile], the IC50 at PI3Kδ (setting [1]) is 19 nM; at PI3Kβ (setting [2]), 78 nM; at PI3Kγ (setting [3]) it was greater than 10000 nM.

For `C[C@H](Nc1ncnc2scnc12)c1nc2c(F)ccc(Cl)c2c(=O)n1N1CCNCC1` [Compound 50, (S)-5-chloro-8-fluoro-3-(piperazin-1-yl)-2-(1-(thiazolo[5,4-d]pyrimidin-7-ylamino)ethyl)quinazolin-4(3H)-one], the IC50 is 2 nM at PI3Kδ (setting [1]), 15 nM at PI3Kβ (setting [2]) and greater than 10000 nM on PI3Kγ (setting [3]).

`C[C@H](NC(=O)c1nc(Cl)c(N)nc1N)c1nc2cccc(Cl)c2c(=O)n1N1CCNCC1` [Compound 33, (S)-3,5-diamino-6-chloro-N-(1-(5-chloro-4-oxo-3-(piperazin-1-yl)-3,4-dihydroquinazolin-2-yl)ethyl)pyrazine-2-carboxamide]: the IC50 at PI3Kδ (setting [1]) stood at 14 nM; on PI3Kβ (setting [2]), 4 nM; at PI3Kγ (setting [3]), 7400 nM.

As for `C[C@H](Nc1ncnc(N)c1C#N)c1nc2cccc(Cl)c2c(=O)n1C1CCN(C2CCN(C)CC2)CC1` [Compound 134, (S)-4-amino-6-((1-(5-chloro-3-(1'-methyl-[1,4'-bipiperidin]-4-yl)-4-oxo-3,4-dihydroquinazolin-2-yl)ethyl)amino)pyrimidine-5-carbonitrile], the IC50 on PI3Kδ (setting [1]) was 35 nM; at PI3Kβ (setting [2]), 2200 nM; on PI3Kγ (setting [3]) it was greater than 10000 nM.

As for `C[C@H](Nc1nc(N)nc(N)c1C#N)c1nc2cccc(Cl)c2c(=O)n1C1CNC1` [Compound 29, (S)-2,4-diamino-6-((1-(3-(azetidin-3-yl)-5-chloro-4-oxo-3,4-dihydroquinazolin-2-yl)ethyl)amino)pyrimidine-5-carbonitrile], the IC50 at PI3Kδ (setting [1]) was found to be 31 nM; on PI3Kβ (setting [2]), 91 nM; at PI3Kγ (setting [3]) it was 3100 nM.

As for `C[C@H](Nc1ncnn2ccnc12)c1nc2c(F)ccc(F)c2c(=O)n1N1CCNCC1` [Compound 40, (S)-5,8-difluoro-2-(1-(imidazo[2,1-f][1,2,4]triazin-4-ylamino)ethyl)-3-(piperazin-1-yl)quinazolin-4(3H)-one], the IC50 at PI3Kδ (setting [1]) is 26 nM; at PI3Kβ (setting [2]) it was 200 nM; on PI3Kγ (setting [3]) it was greater than 10000 nM.

On to `C[C@H](Nc1ncnc2ccc(Cl)nc12)c1nc2cccc(Cl)c2c(=O)n1N1CCNCC1` [Compound 71, (S)-5-chloro-2-(1-((6-chloropyrido[3,2-d]pyrimidin-4-yl)amino)ethyl)-3-(piperazin-1-yl)quinazolin-4(3H)-one], for which the half-maximal inhibitory concentration (IC50) came out at 2 nM at PI3Kδ (setting [1]), 3 nM at PI3Kβ (setting [2]) and 3200 nM on PI3Kγ (setting [3]).

For `C[C@H](Nc1ncnc(N)c1C#N)c1nc2cccc(Cl)c2c(=O)n1C1CCCNC1` (stereo partly drawn) [Compound 83, 4-amino-6-(((1S)-1-(5-chloro-4-oxo-3-(piperidin-3-yl)-3,4-dihydroquinazolin-2-yl)ethyl)amino)pyrimidine-5-carbonitrile], the IC50 on PI3Kδ (setting [1]) was 8 nM; at PI3Kβ (setting [2]), 270 nM; at PI3Kγ (setting [3]) it was greater than 10000 nM.

Consider `C[C@H](Nc1nc(N)nc(N)c1C#N)c1nc2cccc(Cl)c2c(=O)n1C1[C@H]2CNC[C@@H]12` (stereo in doubt) [Compound 19, 4-(((1S)-1-(3-((1R,5S)-3-azabicyclo[3.1.0]hexan-6-yl)-5-chloro-4-oxo-3,4-dihydroquinazolin-2-yl)ethyl)amino)-2,6-diaminopyrimidine-5-carbonitrile], for which the IC50 on PI3Kδ worked out at 1 nM; against PI3Kβ, 3 nM; against PI3Kγ it was 1200 nM.

Regarding `C[C@H](Nc1ncnc2cccnc12)c1nc2cccc(Cl)c2c(=O)n1C1CCCNCC1` (stereo partly drawn) [Compound 81, 3-(azepan-4-yl)-5-chloro-2-((S)-1-(pyrido[3,2-d]pyrimidin-4-ylamino)ethyl)quinazolin-4(3H)-one], the results for the IC50 on PI3Kδ (setting [1]), on PI3Kβ (setting [2]) and at PI3Kγ (setting [3]) were 35 nM, 520 nM and greater than 10000 nM, respectively.

Regarding `N#Cc1c(N)ncnc1N[C@H](c1nc2cccc(Cl)c2c(=O)n1N1CCNCC1)C1CC1` [Compound 102, (S)-4-amino-6-(((5-chloro-4-oxo-3-(piperazin-1-yl)-3,4-dihydroquinazolin-2-yl)(cyclopropyl)methyl)amino)pyrimidine-5-carbonitrile], the values for the IC50 on PI3Kδ (setting [1]), at PI3Kβ (setting [2]) and at PI3Kγ (setting [3]) were 2 nM, 57 nM and greater than 10000 nM, respectively.

Turning to `Cc1nc(N)nc(N[C@H](c2nc3cccc(Cl)c3c(=O)n2N2CCNCC2)C2CC2)c1C#N` [Compound 46, (S)-2-amino-4-(((5-chloro-4-oxo-3-(piperazin-1-yl)-3,4-dihydroquinazolin-2-yl)(cyclopropyl)methyl)amino)-6-methylpyrimidine-5-carbonitrile], the values for the IC50 at PI3Kδ (setting [1]), on PI3Kβ (setting [2]) and at PI3Kγ (setting [3]) were 1 nM, 2 nM and 2600 nM, respectively.

In the case of `C[C@H](NC(=O)c1c(N)nn2cccnc12)c1nc2cccc(Cl)c2c(=O)n1N1CCNCC1` [Compound 36, (S)-2-amino-N-(1-(5-chloro-4-oxo-3-(piperazin-1-yl)-3,4-dihydroquinazolin-2-yl)ethyl)pyrazolo[1,5-a]pyrimidine-3-carboxamide], the IC50 at PI3Kδ (setting [1]) was 56 nM; at PI3Kβ (setting [2]), 6 nM; at PI3Kγ (setting [3]) it was 5700 nM.

As for `C[C@H](Nc1nc(N)nc(N)c1Cl)c1nc2cccc(Cl)c2c(=O)n1N1CCNCC1` [Compound 72, (S)-5-chloro-2-(1-((2,6-diamino-5-chloropyrimidin-4-yl)amino)ethyl)-3-(piperazin-1-yl)quinazolin-4(3H)-one], the IC50 was 11 nM at PI3Kδ (setting [1]), 28 nM on PI3Kβ (setting [2]) and greater than 10000 nM at PI3Kγ (setting [3]).

As to `C[C@H](Nc1ncnc2scnc12)c1nc2cccc(Cl)c2c(=O)n1N1CCNCC1` [Compound 70, (S)-5-chloro-3-(piperazin-1-yl)-2-(1-(thiazolo[5,4-d]pyrimidin-7-ylamino)ethyl)quinazolin-4(3H)-one], the values for the IC50 on PI3Kδ (setting [1]), on PI3Kβ (setting [2]) and at PI3Kγ (setting [3]) were 3 nM, 14 nM and greater than 10000 nM, respectively.

As to `C[C@H](Nc1nc(N)nc(N)c1Cl)c1nc2cccc(Cl)c2c(=O)n1C1CCN(CC(F)(F)F)CC1` [Compound 104, (S)-5-chloro-2-(1-((2,6-diamino-5-chloropyrimidin-4-yl)amino)ethyl)-3-(1-(2,2,2-trifluoroethyl)piperidin-4-yl)quinazolin-4(3H)-one], the IC50 is 260 nM at PI3Kδ (setting [1]), 10000 nM at PI3Kβ (setting [2]) and greater than 10000 nM at PI3Kγ (setting [3]).
